One test relates to HeLa. Briefly: Antiproliferative activity against human HeLa cells after 72 hrs by MTT assay. It counts as functional, cell-based. A general note: Tetrazolium assays rely on reduction of a dye to a coloured formazan, in cell work by metabolically active cells.
In the next test the test system is MCF7. Description: Antiproliferative activity against human MCF7 cells after 72 hrs by MTT assay. It counts as functional, cell-based. The conditions noted are these: MCF7, 72 h.
The next test has as its system HepG2. Description: Antiproliferative activity against human HepG2 cells after 72 hrs by MTT assay. It counts as functional, cell-based. The note with it: HepG2, 72 h.
The subject of the next test is SW-620. Description: Antiproliferative activity against human SW620 cells after 72 hrs by MTT assay. The note with it: SW-620, 72 h. It counts as functional, cell-based.
In another test the test system is MIA PaCa-2. Description: Antiproliferative activity against human MIAPaCa2 cells after 72 hrs by MTT assay. The note with it: MIA PaCa-2, 72 h. It counts as functional, cell-based.
A further test relates to WI-38. Description: Antiproliferative activity against human WI38 cells after 72 hrs by MTT assay. The note with it: WI-38, 72 h. The class given is cell-based.
The target in test [1] is T1, Thymidine kinase (Human alphaherpesvirus 1) (UniProt Q9QNF7).
T1 sequence (whole entry): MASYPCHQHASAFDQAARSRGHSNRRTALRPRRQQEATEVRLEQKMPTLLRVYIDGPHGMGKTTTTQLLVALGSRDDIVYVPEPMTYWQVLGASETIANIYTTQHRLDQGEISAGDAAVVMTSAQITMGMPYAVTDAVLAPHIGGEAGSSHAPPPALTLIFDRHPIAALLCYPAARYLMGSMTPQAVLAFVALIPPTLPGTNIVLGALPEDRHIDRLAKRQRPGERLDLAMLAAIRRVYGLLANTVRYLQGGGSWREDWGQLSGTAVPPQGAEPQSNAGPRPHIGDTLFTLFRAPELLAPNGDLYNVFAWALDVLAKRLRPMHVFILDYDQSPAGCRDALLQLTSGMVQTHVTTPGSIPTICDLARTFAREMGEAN
Description: Activity of HSV-1 GST-TK assessed as formation of compound-monophosphate by HPLC analysis.

For test [2], the target named is T1, Thymidine kinase (Human alphaherpesvirus 1). Briefly: Activity of HSV-1 GST-TK assessed as formation of ADP by HPLC analysis.
Test [3] concerns the target T2, Thymidine kinase, cytosolic (Homo sapiens) (UniProt P04183).
T2 sequence (whole entry): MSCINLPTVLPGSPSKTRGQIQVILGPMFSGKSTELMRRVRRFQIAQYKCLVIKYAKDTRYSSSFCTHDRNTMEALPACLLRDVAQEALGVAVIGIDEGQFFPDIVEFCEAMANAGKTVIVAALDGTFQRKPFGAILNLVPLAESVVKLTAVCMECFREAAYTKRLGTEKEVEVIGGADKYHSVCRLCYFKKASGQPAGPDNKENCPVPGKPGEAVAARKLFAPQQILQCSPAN
Briefly: Activity of human 6xHis-tagged TK assessed as formation of compound-monophosphate by HPLC analysis.

In test [4] the target is T2, Thymidine kinase, cytosolic (Homo sapiens). Briefly: Activity of human 6xHis-tagged TK assessed as formation of ADP by HPLC analysis.
The target in test [5] is T1, Thymidine kinase (Human alphaherpesvirus 1). Briefly: Activity of HSV-1 GST-TK assessed as increase in ADP to ATP ratio at 1 mM after 30 mins.
Test [6] deals with T2, Thymidine kinase, cytosolic (Homo sapiens). Description: Activity of human 6xHis-tagged TK assessed as effect on ADP to ATP ratio at 1 mM after 30 mins.

Each structure is given as a SMILES string. The source made the active and inactive calls. The calls are words filed in the database; no cut-off is given here.

Consider `COc1nc(CC(F)(COC(C)=O)COC(C)=O)c(C)c(OC)n1`, for which the IC50 in the test with HeLa, in the test with MCF7, in the test with HepG2, in the test with SW-620, with MIA PaCa-2 and with WI-38 was > 100 µM throughout.
With `COc1nc(CC(O)(CO)CO)c(C)c(OC)n1`, the concentration for half-maximal inhibition (IC50) in the test on HeLa, with MCF7, with HepG2, with SW-620, in the test with MIA PaCa-2 and in the test with WI-38 was > 100 µM each time.
Consider `COc1nc(CC(O)(COC(C)=O)COC(C)=O)c(C)c(OC)n1`, for which the IC50 in the test with HeLa, with MCF7, in the test on HepG2, in the test with SW-620, in the test on MIA PaCa-2 and in the test on WI-38 was > 100 µM in each case.
For `COc1nc(CC(O)(COCc2ccccc2)COCc2ccccc2)c(C)c(OC)n1`, the half-maximal inhibitory concentration (IC50) was 3.67 µM with HeLa; 4.22 µM in the test on MCF7; 2.42 µM in the test with HepG2; 3.48 µM in the test with SW-620; 6.08 µM in the test with MIA PaCa-2; 3.84 µM with WI-38.
On to `COc1nc(=O)n(C)c(CC(O)(CO)CO)c1C`, for which the half-maximal inhibitory concentration (IC50) with HeLa, with MCF7, in the test with HepG2, in the test with SW-620, in the test on MIA PaCa-2 and with WI-38 was > 100 µM throughout.
On to `CC(=O)OCC(O)(COC(C)=O)Cc1c(C)c(=O)[nH]c(=O)n1C`, for which the IC50 in the test on HeLa, in the test with MCF7, in the test with HepG2, in the test with SW-620, in the test on MIA PaCa-2 and with WI-38 was > 100 µM throughout.
Regarding `COc1nc(=O)n(C)c(CC(F)(COC(C)=O)COC(C)=O)c1C`, the IC50 with HeLa, in the test on MCF7, in the test with HepG2, in the test with SW-620, with MIA PaCa-2 and in the test with WI-38 was > 100 µM each time.
Take `CC(=O)OCC(F)(COC(C)=O)Cc1c(C)c(=O)[nH]c(=O)n1C`: the IC50 with HeLa, in the test on MCF7, in the test on HepG2, with SW-620, with MIA PaCa-2 and with WI-38 was > 100 µM each time.
Consider `CC(=O)OCC(=Cc1c(C)c(=O)[nH]c(=O)n1C)COC(C)=O`, for which the concentration for half-maximal inhibition (IC50) with HeLa, in the test with MCF7, with HepG2, in the test with SW-620, in the test with MIA PaCa-2 and in the test with WI-38 was > 100 µM each time.
Turning to `COc1nc(=O)n(C)c(CC(O)(COCc2ccccc2)COCc2ccccc2)c1C`, the IC50 in the test on HeLa was found to be 29.5 µM; in the test with MCF7, 23.7 µM; in the test on HepG2, 33.9 µM; in the test with SW-620, 57.2 µM; in the test on MIA PaCa-2, 33.5 µM; in the test on WI-38, 49.8 µM.
Consider `Cc1c(C=C(CO)CO)n(C)c(=O)[nH]c1=O`, for which the result in [1], in [2] and in test [5] was Active. Also, the result in test [3], in test [4] and in test [6] was inactive. Besides, the 50% inhibitory concentration (IC50) in the test with HeLa, with MCF7, with HepG2, with SW-620, in the test on MIA PaCa-2 and with WI-38 was > 100 µM in each case.
Turning to `COc1nc(=O)n(C)c(CC(O)(COC(C)=O)COC(C)=O)c1C`, the half-maximal inhibitory concentration (IC50) in the test with HeLa, with MCF7, with HepG2, in the test on SW-620, with MIA PaCa-2 and in the test on WI-38 was > 100 µM throughout.
Consider `Cc1c(CC(O)(CO)CO)n(C)c(=O)[nH]c1=O`, for which the 50% inhibitory concentration (IC50) in the test with HeLa, in the test with MCF7, in the test on HepG2, in the test with SW-620, with MIA PaCa-2 and in the test with WI-38 was > 100 µM in each case.

The term IC50 denotes the concentration that gives 50% inhibition.
